Assay results published in patent US20250275976A1, “Methods of Treating Neuroinflammatory Conditions” (Athira Pharma, Inc., priority 2022, published 2025).
Like-named read-outs stand apart in the source and are kept apart here.

How the values were obtained:
[1] = tested on: THP-1-differentiated macrophages; experiment: Pro-inflammatory cytokines in supernatants of LPS-challenged THP-1-differentiated macrophages; assay type: cell-based, human; design: key to Significant reduction in pro-inflammatory cytokine expression: IL-6 / Significant reduction in pro-inflammatory cytokine expression: TNF-α / Significant reduction in pro-inflammatory cytokine expression: IL-1β: “NS” indicates a non-significant reduction in the indicated cytokine; “+” indicates a p value <0.05 in Tukey post test; “++” indicates a p value <0.01 in Tukey post test; conditions: for Significant reduction in pro-inflammatory cytokine expression: IL-1β / Significant reduction in pro-inflammatory cytokine expression: IL-6 / Significant reduction in pro-inflammatory cytokine expression: TNF-α: LPS 24 hrs
From the text: Neuroinflammation plays a crucial role in disease progression and is a complex phenomenon involving various cells that affect many extra- and intracellular signaling pathways and cytokine production. The macrophage of the brain (microglia) is the main agent of innate immunity in the CNS and performs various functions, including neuroprotection, in response to inflammatory signals. Activated microglia participate in developing neuroinflammation, responding to toxic exogenous substances (like LPS) or endogenous substances (like amyloid-beta). Here, THP-1 cells were used as an in-vitro cell model to evaluate mechanisms relevant to CNS inflammation. Differentiation with phorbol-12-myristate-13-acetate (PMA) causes THP-1 monocyte cells to acquire functional and morphological resemblance to macrophages. LPS interacts with THP-1 differentiated macrophage through the toll-like receptor 4, triggering the inflammatory response and stimulating pro-inflammatory cytokine release and eventually leading to cellular death. Test compounds were investigated for whether they have anti-inflammatory effects on LPS-challenged macrophage cultures. THP-1-differentiated macrophages were treated with test compounds for 20 minutes, followed by 24 hrs of LPS challenge. Culture supernatants were then collected to analyzed for the presence of pro-inflammatory cytokines: interleukin 1β (IL--1β), interleukin 6 (IL-6) and tumor necrosis factor α (TNF-α).
Cytokine quantification in cell culture supernatants was accomplished by homogeneous time resolved fluorescence (HTRF) kits to assess levels of IL-1β (Human IL-1β kit, #62HIL1BPEG, Cisbio) and IL-6 (Human IL-6 kit, 62HILO6PET, Cisbio), and by ELISA (Human TNF-α ELISA kit, KHC3011, ThermoFisher) to determine the levels of TNF-α.
Data analysis was performed via 1-way ANOVA with Tukey post-test compared to LPS treatment cultures using Prism statistical software (GraphPad). Tabular data indicates significance of reduction in culture supernatants for the indicated analyte at the indicated dose.

[2] = tested on: Rat primary cortical neuron cultures; experiment: Neuroprotection of rat primary cortical neurons against neurotoxic insults (Cell Titer-Glo viability); assay type: cell-based
From the text: HGF/MET signaling activation is expected to protect cells, including neurons, from cell death. […] Hydrogen peroxide (H2O2) treatment produces toxic oxidative stress. Bacteria-derived lipopolysaccharide (LPS) treatment induces inflammatory cell death. Treatment with excess glutamate (Glut) produces excitotoxicity in neuron cultures. Treatment with 1-methyl-4-phenylpyridinium (MPP^+) causes cell death by inhibition of mitochondrial function.
Cells were then subjected to individual conditional insults for 24 hours at the following concentrations: H2O2 at 1 uM, LPS at 1 uM, glutamate at 25 uM, or MPP+ at 500 uM. All treatments contained recombinant human HGF (R&D Systems) at a concentration of 5 ng/ml. MK-801 (Dizocilpine) is a pore blocker of the N-Methyl-D-aspartate (NMDA) receptor, a glutamate receptor, and was used as a positive control.
Data was normalized to DMSO+HGF control set at 100% cell viability.
Data are reported as statistical significance vs. insult control, with NS=not significant, +=p<0.05, ++=p<0.01, and +++=p<0.001.

[3] = tested on: Rat primary cortical neuron cultures; experiment: Neuroprotection of rat cortical neurons against LPS challenge (Cell Titer-Glo); conditions: at at least one dose tested
[4] = tested on: Rat primary cortical neuron cultures; conditions: LPS 24 h

In the case of `CCC(C)CN1CC2N(C(=O)c3ccc(C(F)(F)F)cc3)CCC(=O)N2[C@@H](C)C1=O` (stereo partly shown) [Compound 1a], the “Expression of IL-1β and TNF-α (result in words)” value ([1]; at at least one tested dose) is reported as “significantly reduced”, the “Expression of IL-6 (result in words)” value ([1]; at at least one tested dose) is reported as “significantly reduced” and the “Significant reduction in pro-inflammatory cytokine expression: IL-1β” value (shortened to “Significant reduction … IL-1β”) ([1]; dose 0.1 nM) is reported as “++ (“++” indicates a p value <0.01 in Tukey post test)”. The “Significant reduction in pro-inflammatory cytokine expression: IL-6” value (“Significant reduction … IL-6” for short) ([1]; dose 0.1 nM) was “NS”, the “Significant reduction in pro-inflammatory cytokine expression: TNF-α” value (shortened to “Significant reduction … TNF-α”) ([1]; dose 0.1 nM) was “++ (“++” indicates a p value <0.01 in Tukey post test)” and the “Significant reduction … IL-1β” value ([1]; dose 10 nM) was “++ (“++” indicates a p value <0.01 in Tukey post test)”. For the same compound, the “Significant reduction … IL-6” value ([1]; dose 10 nM) was “++ (“++” indicates a p value <0.01 in Tukey post test)”, the “Significant reduction … TNF-α” value ([1]; dose 10 nM) was “++ (“++” indicates a p value <0.01 in Tukey post test)” and the “Significant reduction … IL-1β” value ([1]; dose 1000 nM) was “++ (“++” indicates a p value <0.01 in Tukey post test)”. For the same compound, the “Significant reduction … IL-6” value ([1]; dose 1000 nM) was “+ (“+” indicates a p value <0.05 in Tukey post test)”, the “Significant reduction … TNF-α” value ([1]; dose 1000 nM) was “++ (“++” indicates a p value <0.01 in Tukey post test)” and the “Statistical significance vs. insult control (cell viability)” value ([2]; Glutamate (25 uM) insult, [Compound 1a] 0.1 nM + HGF (5 ng/ml)) was “+++ (+++=p<0.001)”. The “Statistical significance vs. insult control (cell viability)” value ([2]; Glutamate (25 uM) insult, [Compound 1a] 1 nM + HGF (5 ng/ml)) was “+++ (+++=p<0.001)”, the “Statistical significance vs. insult control (cell viability)” value ([2]; Glutamate (25 uM) insult, [Compound 1a] 100 nM (second column headed 100 nM) + HGF (5 ng/ml)) was “+++ (+++=p<0.001)” and the “Statistical significance vs. insult control (cell viability)” value ([2]; Glutamate (25 uM) insult, [Compound 1a] 100 nM + HGF (5 ng/ml)) was “+++ (+++=p<0.001)”. For the same compound, the “Statistical significance vs. insult control (cell viability)” value ([2]; Glutamate (25 uM) insult, [Compound 1a] 1 uM + HGF (5 ng/ml)) was “+++ (+++=p<0.001)”, the “Statistical significance vs. insult control (cell viability)” value ([2]; H2O2 (1 uM) insult, [Compound 1a] 0.1 nM + HGF (5 ng/ml)) was “+++ (+++=p<0.001)” and the “Statistical significance vs. insult control (cell viability)” value ([2]; H2O2 (1 uM) insult, [Compound 1a] 1 nM + HGF (5 ng/ml)) was “+++ (+++=p<0.001)”. The “Statistical significance vs. insult control (cell viability)” value ([2]; H2O2 (1 uM) insult, [Compound 1a] 100 nM (second column headed 100 nM) + HGF (5 ng/ml)) was “+++ (+++=p<0.001)”, the “Statistical significance vs. insult control (cell viability)” value ([2]; H2O2 (1 uM) insult, [Compound 1a] 100 nM + HGF (5 ng/ml)) was “+++ (+++=p<0.001)” and the “Statistical significance vs. insult control (cell viability)” value ([2]; H2O2 (1 uM) insult, [Compound 1a] 1 uM + HGF (5 ng/ml)) was “+++ (+++=p<0.001)”. The “Neuroprotection against the cohort of insults (result in words)” value ([2]; H2O2, glutamate, LPS, MPP+, broad range of concentrations) was “effective neuroprotective treatment at a broad range of concentrations against the entire cohort of insults tested”, the “Statistical significance vs. insult control (cell viability)” value ([2]; LPS (1 uM) insult, [Compound 1a] 0.1 nM + HGF (5 ng/ml)) was “+++ (+++=p<0.001)” and the “Statistical significance vs. insult control (cell viability)” value ([2]; LPS (1 uM) insult, [Compound 1a] 100 nM (second column headed 100 nM) + HGF (5 ng/ml)) was “+++ (+++=p<0.001)”. For the same compound, the “Statistical significance vs. insult control (cell viability)” value ([2]; LPS (1 uM) insult, [Compound 1a] 100 nM + HGF (5 ng/ml)) was “+++ (+++=p<0.001)”, the “Statistical significance vs. insult control (cell viability)” value ([2]; LPS (1 uM) insult, [Compound 1a] 1 uM + HGF (5 ng/ml)) was “+++ (+++=p<0.001)” and the “Statistical significance vs. insult control (cell viability)” value ([2]; MPP+ (500 uM) insult, [Compound 1a] 0.1 nM + HGF (5 ng/ml)) was “+++ (+++=p<0.001)”. The “Statistical significance vs. insult control (cell viability)” value ([2]; MPP+ (500 uM) insult, [Compound 1a] 1 nM + HGF (5 ng/ml)) was “+++ (+++=p<0.001)”, the “Statistical significance vs. insult control (cell viability)” value ([2]; MPP+ (500 uM) insult, [Compound 1a] 100 nM (second column headed 100 nM) + HGF (5 ng/ml)) was “+++ (+++=p<0.001)” and the “Statistical significance vs. insult control (cell viability)” value ([2]; MPP+ (500 uM) insult, [Compound 1a] 100 nM + HGF (5 ng/ml)) was “+++ (+++=p<0.001)”. For the same compound, the “Statistical significance vs. insult control (cell viability)” value ([2]; MPP+ (500 uM) insult, [Compound 1a] 1 uM + HGF (5 ng/ml)) was “+++ (+++=p<0.001)”, the “Protection of primary neurons from LPS-stimulated inflammatory toxicity (in words)” value [3] was “protected primary neurons from LPS-stimulated inflammatory toxicity” and the “Significance of neuroprotection vs 1 uM LPS” value (“Significance … vs 1 uM LPS” for short) ([4]; dose 0.1 nM) was “+++ (+++ indicates p<0.001)”. The “Significance … vs 1 uM LPS” value ([4]; dose 1 nM) was “+++ (+++ indicates p<0.001)”, the “Significance … vs 1 uM LPS” value ([4]; dose 10 nM) was “+++ (+++ indicates p<0.001)” and the “Significance … vs 1 uM LPS” value ([4]; dose 100 nM) was “+++ (+++ indicates p<0.001)”. The “Significance … vs 1 uM LPS” value ([4]; dose 1 μM) was “+++ (+++ indicates p<0.001)”.
